# Assay results as given in patent publication US7129238B2, “Mandelic acid derivatives” (Hoffmann-La Roche Inc., priority 2002, dated 2006).
# Where a name gives a salt, the structure may show the parent alone.
# Molecular target: T1, factor VIIa/tissue factor complex (Homo sapiens, UniProt P08709)
# T1 construct: 9 nM of soluble factor VIIa
# Test: inhibition of the amidolytic activity of factor VIIa/tissue factor complex (chromogenic peptide substrate)
# Format: biochemical
# Details: soluble factor VIIa, substrate Chromozym-tPA, pH 7.5, room temperature
# Experimental: The measurements were carried out by an automated robotic assay on microtitre plates at room temperature. To this end, 100 μL of a solution of 26 nM of tissue factor, 9 nM of soluble factor VIIa and 8 mM of calcium chloride were added to 25 μL of a solution of the inhibitor in a buffer [pH 7.5, 100 mM, comprising 0.14M NaCl, 0.1M N-(2-hydroxyethyl)piperazine-N′-(2-ethanesulphonic acid) (HEPES), 0.5 mg/l of fatty-acid-free BSA (bovine serum albumin) and 0.05% NaN3] in each well of the plate. After an incubation time of 15 minutes the reaction was started by the addition of 50 μl of chromogenic substrate Chromozym-tPA (3.5 mM, MeSO2-D-Phe-Gly-Arg-paranitroanilide) and the hydrolysis of the substrate was followed spectrophotometrically on a kinetic microtitre plate reader over 10 minutes. Using the plot of the inhibition curves, the Ki values were determined according to the method described in Biochem. J. 55, 1953, 170–171.
# T1 sequence (P08709 213-466 limits assumed): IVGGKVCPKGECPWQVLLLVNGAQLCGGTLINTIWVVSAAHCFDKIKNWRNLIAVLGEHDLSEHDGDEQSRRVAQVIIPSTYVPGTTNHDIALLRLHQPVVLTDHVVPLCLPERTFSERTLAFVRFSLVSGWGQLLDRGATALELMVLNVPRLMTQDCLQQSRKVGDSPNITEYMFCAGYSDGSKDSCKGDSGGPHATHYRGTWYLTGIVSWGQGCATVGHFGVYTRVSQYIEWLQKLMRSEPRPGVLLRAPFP
# T1 sequence (P08709 61-212 limits assumed): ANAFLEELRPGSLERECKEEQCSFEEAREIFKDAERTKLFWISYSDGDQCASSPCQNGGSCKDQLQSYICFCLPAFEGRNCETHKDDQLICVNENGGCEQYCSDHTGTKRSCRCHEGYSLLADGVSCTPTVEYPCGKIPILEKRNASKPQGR
# T1 sequence (P13726 33-295 partner): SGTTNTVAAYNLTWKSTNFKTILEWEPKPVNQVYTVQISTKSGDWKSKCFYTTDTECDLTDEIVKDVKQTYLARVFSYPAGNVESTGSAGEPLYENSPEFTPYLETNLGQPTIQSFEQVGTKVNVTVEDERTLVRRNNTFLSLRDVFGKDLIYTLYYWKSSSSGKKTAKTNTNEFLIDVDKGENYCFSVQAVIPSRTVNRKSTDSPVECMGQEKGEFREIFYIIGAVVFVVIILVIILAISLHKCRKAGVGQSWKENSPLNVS
row,Compound,Ki [nM]
1,"CCOc1ccc(C(OC)C(=O)NCc2ccc(C(=N)N)cc2)c(F)c1OCC (racemic) [Example 33.3, (RS)-N-(4-carbamimidoyl-benzyl)-2-(3,4-diethoxy-2-fluoro-phenyl)-2-methoxy-acetamide hydrochloride]",490
2,"CCOC(C(=O)NCc1c(F)cc(C(=N)N)cc1F)c1c(F)cc(-c2ccc(N)nc2)cc1F (racemic) [Example 336.2, (RS)-2-[4-(6-amino-pyridin-3-yl)-2,6-difluoro-phenyl]-N-(4-carbamimidoyl-2,6-difluoro-benzyl)-2-ethoxy-acetamide acetate]",598
3,"COc1ccc2cc(C(OC)C(=O)NCc3ccc(C(=N)N)cc3)ccc2c1 (racemic) [Example 53.3, (RS)-N-(4-carbamimidoyl-benzyl)-2-methoxy-2-(6-methoxy-naphthalen-2-yl)-acetamide hydrochloride]",2260
4,(RS)-{4-Carbamimidoyl-2-[(pyridin-2-ylmethyl)-amino]-benzyl}-2-ethoxy-2-(2-fluoro-4-methoxy-phenyl)-acetamide hydrochloride [Example 325],77
5,"CCOC(C(=O)NCc1ccc(C(=N)N)cc1)c1c(F)cc(OCc2ccccn2)cc1F (racemic) [Example 294.2, (RS)-N-(4-carbamimidoyl-benzyl)-2-[2,6-difluoro-4-(pyridin-2-ylmethoxy)-phenyl]-2-ethoxy-acetamide hydrochloride]",586
6,"COc1cc(F)c(C(OC)C(=O)NCc2ccc(C(=N)N)cc2)cc1OC (racemic) [Example 24.3, (RS)-N-(4-carbamimidoyl-benzyl)-2-(2-fluoro-4,5-dimethoxy-phenyl)-2-methoxy-acetamide hydrochloride]",2210
7,"COC(C(=O)NCc1ccc(C(=N)N)cc1)c1ccc(OCCc2ccc(F)cc2)cc1F (racemic) [Example 72.2, (RS)-N-(4-carbamimidoyl-benzyl)-2-{2-fluoro-4-[2-(4-fluoro-phenyl)-ethoxy]-phenyl}-2-methoxy-acetamide hydrochloride]",2100
8,"(RS)-(4-carbamimidoyl-2-carbamoylmethoxy-benzyl)-2-[2,6-difluoro-4-(pyridin-2-ylmethoxy)-phenyl]-2-ethoxy-acetamide hydrochloride [Example 335.5]",17

# The next lines start with the values.
row,Ki [nM],Compound
1,320,"CCOC(C(=O)NCc1ccc(C(=N)N)cc1)c1c(F)cc(-c2ccc(N)cn2)cc1F (racemic) [Example 269, (RS)-2-[4-(5-Amino-pyridin-2-yl)-2,6-difluoro-phenyl]-N-(4-carbamimidoyl-benzyl)-2-ethoxy-acetamide hydrochloride]"
2,121,"CCOC(C(=O)NCc1ccc(C(=N)N)cc1NCC(=O)O)c1ccc(OC)cc1F (racemic) [Example 329, (RS)-(5-carbamimidoyl-2-j [2-ethoxy-2-(2-fluoro-4-methoxy-phenyl)-acetylamino]-methyl)-phenylamino)-acetic acid acetate]"
3,242,"CCOC(C(=O)NCc1ccc(C(=N)N)cc1)c1c(F)cc(-c2cnc(N)nc2)cc1F (racemic) [Example 266, (RS)-2-[4-(2-Amino-pyrimidin-5-yl)-2,6-difluoro-phenyl]-N-(4-carbamimidoyl-benzyl)-2-ethoxy-acetamide hydrochloride]"
4,154,"CCOC(C(=O)NCc1ccc(C(=N)N)cc1)c1c(F)cc(-c2ccc(N)nc2)cc1F (racemic) [Example 271, (RS)-(2-[4-(6-Amino-pyridin-3-yl)-2,6-difluoro-phenyl]-N-(4-carbamimidoyl-benzyl)-2-ethoxy-acetamide hydrochloride]"
5,65,"CCOC(C(=O)NCc1ccc(C(=N)N)cc1NCc1ccccc1)c1ccc(OC)cc1F (racemic) [Example 323, (RS)-N-(2-Benzylamino-4-carbamimidoyl-benzyl)-2-ethoxy-2-(2-fluoro-4-methoxy-phenyl)-acetamide acetate]"
6,20,"CCOC(C(=O)NCc1ccc(C(=N)N)cc1OCC(N)=O)c1c(F)cc(OC)cc1F (racemic) [Example 126.3, (RS)-N-(4-carbamimidoyl-2-carbamoylmethoxy-benzyl)-2-(2,6-difluoro-4-methoxy-phenyl)-2-ethoxy-acetamide hydrochloride]"
7,44,"COc1cc(F)c(C(OC)C(=O)NCc2ccc(C(=N)N)cc2OCc2ccccn2)c(F)c1 (racemic) [Example 141, (RS)-N-[4-carbamimidoyl-2-(pyridin-2-ylmethoxy)-benzyl]-2-(2,6-difluoro-4-methoxy-phenyl)-2-methoxy-acetamide hydrochloride]"
8,371,"CCOC(C(=O)NCc1ccc(C(=N)N)cc1)c1c(F)cc(-c2cccnc2)cc1F (racemic) [Example 267, (RS)-N-(4-Carbamimidoyl-benzyl)-2-(2,6-difluoro-4-pyridin-3-yl-phenyl)-2-ethoxy-acetamide hydrochloridr]"
9,21,"CCOC(C(=O)NCc1ccc(C(=N)N)cc1OCC(=O)NCCOC)c1c(F)cc(OC)cc1F (racemic) [Example 129, (RS)-N-{4-Carbamimidoyl-2-[(2-methoxy-ethylcarbamoyl)-methoxy]-benzyl}-2-(2,6-difluoro-4-methoxy-phenyl)-2-ethoxy-acetamide hydrochloride]"
